Source: patent US8716309B2, “Pharmaceutical composition comprising pyridone derivatives” (priority 2011, dated 2014)
Read-outs that look alike come from different tables or passages of the source.

Tests used:
Male ICR mice [1] = test: Novel Object Recognition Test (NORT), MK-801 induced amnesia; type: in vivo; settings: Mus musculus; ip; dose at which the relative RI is given; doses 0.03˜3 mg/kg; read-out: NORT MED
human α7 nAChR = human α7 nAChR (Homo sapiens, UniProt P36544); test: cell-based; settings: EC50 of human α7nAChR(nM), HEK293T/17 cells transfected with human α7 nAChR; PNU-120596 added; relative to epibatidine 1 μM positive control
Male ICR mice [2] = test: Novel Object Recognition Test (NORT), MK-801 induced amnesia; type: in vivo; settings: Mus musculus; po; dose at which the relative RI is given; doses 0.03˜3 mg/kg; read-out: NORT MED
From the text: A NORT, which was first introduced by Ennaceur and Delacour, is a cognitive memory test for measuring whether rats are able to remember objects with which they have had previous experience based on the nature of rats, i.e., preference to explore novel objects [Ennaceur A and Delacour J (1988) A new one-trial test for neurobiological studies of memory in rats. 1; Behavioral data. Behavioral Brain Res. 31; 47-59]. This NOR test is a popular experimental method for measuring changes in memory of objects in rodents administered with either an amnesia-inducing drug or other general drugs, by which memory recovery efficacy of a test drug in the rodents administered with the amnesia-inducing drug is explored. In the present example, the test was performed in accord with the description of Bevins and Besheer [Bevins, R. A. & Besheer, J. Object recognition in rats and mice; a one-trial non-matching-to-sample learning task to study ‘recognition memory’. Nat. Protoc. 2006; 1(3); 1306-11. (2006)]. Male ICR mice (available from Orient Bio Inc., Korea) weighing from about 20 g to about 32 g were orally administered a test compound dissolved in a 30% PEG at doses of 0.03˜3 mg/kg and 10 ml/kg body weight. 30 minutes after the administration, MK-801 (available from Sigma) dissolved in saline was subcutaneously administered at doses of 0.1 mg/kg and 10 ml/kg body weight to induce amnesia. About 30 minutes after the administration of MK-801, the mice were allowed to explore a rectangular stainless steel pillar or a circular plastic pillar which was previously placed in a box for about 5 minutes. About 24 hours after the exploration, one of the two objects previously presented was replaced with a new one (i.e., to include one rectangular stainless steel pillar and one circular plastic pillar), the times they took to explore were measured for about 5 minutes. A recognition index (RI) was defined as: [(Exploration time for novel object in test compound group/Exploration time for all objects in test compound group)/(Exploration time for novel object in MK801 group/Exploration time for all objects in MK801 group)×100].
Table 2 below presents relative RIs of the compounds at a minimal dose […].

Chain of human α7 nAChR (P36544 23-502): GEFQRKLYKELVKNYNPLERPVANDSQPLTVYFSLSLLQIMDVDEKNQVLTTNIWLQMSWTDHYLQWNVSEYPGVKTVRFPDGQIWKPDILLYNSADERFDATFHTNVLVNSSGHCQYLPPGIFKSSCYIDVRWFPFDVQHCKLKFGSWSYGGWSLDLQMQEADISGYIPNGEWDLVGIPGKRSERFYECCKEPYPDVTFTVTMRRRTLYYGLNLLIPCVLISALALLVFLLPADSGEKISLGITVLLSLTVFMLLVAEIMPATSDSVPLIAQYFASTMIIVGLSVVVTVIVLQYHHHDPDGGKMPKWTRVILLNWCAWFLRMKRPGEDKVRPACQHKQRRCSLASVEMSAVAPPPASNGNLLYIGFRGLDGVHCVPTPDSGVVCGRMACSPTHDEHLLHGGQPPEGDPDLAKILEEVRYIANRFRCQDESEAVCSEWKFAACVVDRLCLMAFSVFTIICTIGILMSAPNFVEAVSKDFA

O=C(N[C@H]1CN2CCC1CC2)c1ccc(=O)n(-c2ccc(Cl)cc2)c1 [Example 5, N-[(3R)-1-azabicyclo[2.2.2]octan-3-yl]-1-(4-chlorophenyl)-6-oxopyridine-3-carboxamide]
minimal effective dose (Male ICR mice [1]): 0.1 mg/kg | EC50 (human α7 nAChR): > 1000 nM

O=C(NC1CN2CCC1CC2)c1ccc(=O)n(-c2ccc(Cl)cc2-c2nccs2)c1 (stereo not shown) [Example 105, N-(1-azabicyclo[2.2.2]octan-3-yl)-1-[4-chloro-2-(2-thiazolyl)phenyl]-6-oxo-3-pyridine carboxamide]
minimal effective dose (Male ICR mice [2]): 0.3 mg/kg | EC50 (human α7 nAChR): 500 to 1000 nM

O=C(NC1CN2CCC1CC2)c1ccc(=O)n(-c2ccc(-c3ccccc3)cc2)c1 (stereo not shown) [Example 65, N-(1-azabicyclo[2.2.2]octan-3-yl)-1-(4-phenylphenyl)-6-oxo-3-pyridinecarboxamide]
minimal effective dose (Male ICR mice [1]): 1 mg/kg | EC50 (human α7 nAChR): 100 to 500 nM

CSc1cc(C)ccc1-n1cc(C(=O)N[C@@H]2CN3CCC2CC3)ccc1=O [Example 91, N-[(3S)-1-azabicyclo[2.2.2]octan-3-yl]-1-[4-methyl-2-(methylthio)phenyl]-6-oxo-3-pyridinecarboxamide]
minimal effective dose at 3 mg/kg (Male ICR mice [2]): 3 mg/kg | EC50 (human α7 nAChR): 100 to 500 nM

CSc1ccccc1-n1cc(C(=O)NC2CN3CCC2CC3)ccc1=O (stereo not shown) [Example 77, N-(1-azabicyclo[2.2.2]octan-3-yl)-1-[2-(methylthio)phenyl]-6-oxo-3-pyridinecarboxamide]
minimal effective dose (Male ICR mice [1]): 0.1 mg/kg | EC50 (human α7 nAChR): < 100 nM

O=C(N[C@@H]1CN2CCC1CC2)c1ccc(=O)n(-c2ccc(Cl)cc2Cl)c1 [Example 27, N-[(3S)-1-azabicyclo[2.2.2]octan-3-yl)-1-(2,4-dichlorophenyl)-6-oxo-3-pyridinecarboxamide]
minimal effective dose (Male ICR mice [2]): 1 mg/kg | EC50 (human α7 nAChR): > 1000 nM

CSc1cc(C)ccc1-n1cc(C(=O)NC2CN3CCC2CC3)ccc1=O (stereo not shown) [Example 89, N-(1-azabicyclo[2.2.2]octan-3-yl)-1-[4-methyl-2-(methylthio)phenyl]-6-oxo-3-pyridinecarboxamide]
minimal effective dose (Male ICR mice [2]): 0.03 mg/kg | EC50 (human α7 nAChR): < 100 nM

O=C(NC1CN2CCC1CC2)c1ccc(=O)n(-c2ccccc2-c2nccs2)c1 (stereo not shown) [Example 104, N-(1-azabicyclo[2.2.2]octan-3-yl)-6-oxo-1-[2-(2-thiazolyl)phenyl]-3-pyridinecarboxamide]
minimal effective dose (Male ICR mice [2]): 3 mg/kg | EC50 (human α7 nAChR): 100 to 500 nM
